Literature values, collected in patent US20170056463A1, “COMPOSITIONS AND METHODS FOR TREATING DIABETES” (priority 2015, published 2017).

Experiments:
[1] = tested on: phosphotyrosine phosphatase
[2] = tested on: HSV (herpes simplex virus)
[3] = not given; remark: listed apart in the source

SMILES: [Cr] [Chromium, chromium]
- phosphotyrosine phosphatase activity [1]: inhibit

SMILES: COc1ccc2cc3[n+](cc2c1OC)CCc1cc2c(cc1-3)OCO2 [berberine]
- levels of fasting blood sugar (after oral supplementation with the herbal extract of berberine, patients with pre-diabetes and diabetes): normalize
- lowering of blood glucose (doses of about 1,000 mg daily, compared with metformin): as effectively as metformin
- cholesterol ratios (previous investigations): improved
- hemoglobin A1c (HbA1c) (previous investigations): significant reduction
- growth of HSV [2]: inhibits growth

SMILES: [Zn] [zinc]
- blood glucose levels ([3]; 2 hour post-prandial measurements in people treated with zinc): reduced
- systolic and diastolic blood pressures ([3]; after zinc supplementation): significant reduction
